{"source": "patent US12208090B2", "about": "“Compounds for use in treating depression and migraine” (Khondrion IP B.V., priority 2017, dated 2025)", "key": {"[1]": {"tested_on": "patients carrying the mutation m.3243A>G in the mitochondrial DNA", "assay": "Khenergy phase 2 trial: Beck Depression Inventory-II (BDI)", "assay_type": "in vivo, human", "excerpt": "(§1) The Khenergy trial (clinicaltrial.gov identifier NCT02909400) was a double blind, randomized, placebo-controlled, single-centre, two-way cross-over trial. Twenty patients, with a confirmed mitochondrial DNA tRNALeu(UUR) m.3243A>G mutation and with clinical signs of mitochondrial disease, were randomized over 2 groups (active or placebo first). After a screening period and a training session, each group had 2 dosing periods of 28 days, with a washout period of at least 28 days in between. On these occasions (i.e. during the dosing periods), patients received 100 mg KH176 twice daily (treatment A) or a matching placebo (treatment B) twice daily for 28 days. Clinical assessments were performed once in a training session prior to baseline, at baseline and in week 4 post dosing during each treatment phase (A and B). Testing conditions and circumstances, with respect to timing of the assessments, hospitalization and meals, were standardized for each assessment period. Furthermore, assessments of biomarkers for mitochondrial functioning, pharmacokinetics and specific safety assessments were performed weekly. Trial results have been published (Janssen, Koene, De Laat, et al., 2018)\nThe effect of KH176 on depression symptoms in patients carrying the mutation m.3243A>G in the mitochondrial DNA was evaluated with the Beck Depression Inventory-II (BDI) score and Hospital Anxiety and Depression Scale (HADS) during the Khenergy phase 2 clinical trial (clinicaltrial.gov identifier NCT02909400). […] This observation was supported by a positive trend in the Hospital Anxiety and Depression Scale (effect size, −1.9 (95% Cl, −3.6 to −0.2); P=0.03)."}, "[2]": {"tested_on": "patients who suffer from chronic migraine", "assay": "Khenergy phase 2 trial: patient-reported migraine and headache", "assay_type": "in vivo, human", "excerpt": "as §1\nTwo patients from the Khenergy Phase 2 clinical trial have spontaneously reported a decreased frequency of migraine event during the treatment period with KH176 (reported before unblinding of the study). A third patient retrospectively reported that they had more migraines during the placebo treatment period over the KH176 treatment period."}, "[3]": {"conditions": "100 mg KH176 twice daily for 28 days vs matching placebo, cross-over"}}, "data": [{"smiles": "Cc1c(C)c2c(c(C)c1O)CC[C@@](C)(C(=O)N[C@@H]1CCCNC1)O2", "note": "[KH176]", "values": [{"measurement": "Beck Depression Affective Subscale, effect size, comparison KH176-Placebo", "setting": "[1]; [3]", "value": "−1.1"}, {"measurement": "Beck Depression Inventory total score, effect size, comparison KH176-Placebo", "setting": "[1]; [3]", "value": "−2.9"}, {"measurement": "effect on depression symptoms (in words)", "setting": "[1]; KHENERGY trial, mitochondrial disease patients", "value": "significantly reduce depression symptoms"}, {"measurement": "effect on migraine events (in words)", "setting": "[2]; KHENERGY trial, patients who previously chronically suffered from migraine, KH176 treatment period", "value": "reduction of the intensity and number of migraine events"}, {"measurement": "headache during the 4 weeks of KH176", "setting": "[2]; Patient A, before: severe headaches every day, migraine 2 times a week", "value": "NO headache"}, {"measurement": "patients with a positive effect on migraine", "setting": "[2]; patients of the trial who suffer from chronic migraine", "value": "3 out of 3"}]}]}
